# Assay results as given in patent publication US11205502B2, “Processing method and processing apparatus for efficacy of combined drug” (Institute of radiation medicine, academy of military …, priority 2015, dated 2021).
# Tested on: human lung cancer cell H460 lines
# Assay: MTT method, inhibition of growth of H460 by etoposide, vincristine, 5-fluorouracil, adriamycin and three-drug combinations; expected additive effect by equivalent dose conversion
# Assay type: cell-based
# Conditions: for Efficacy of C / Efficacy of A / Efficacy of B: from fitted single-use equation
# Description: Title: there are many application schemes for a chemotherapeutic drug in lung cancer treatment. The chemotherapeutic drug in these schemes mainly includes the followings that belong to a topoisomerase inhibitor, a microtubule inhibitor, a metabolic inhibitor and an alkylating agent from types. One representative drug is successively selected from the four types of the drugs and respectively is etoposide (A), vincristine (B), 5-fluorouracil (C) and adriamycin (D). For any three combined application schemes, the inhibition effect to growth of human lung cancer cell H460 lines is detected with an MTT method. The three schemes successively are combinations of four combined drugs of A+B+C, A+B+D, A+C+D and B+C+D and the synergistic, additive and antagonistic effects are evaluated quantitatively. A:B:C=12.5:2:45 (μg/ml+μg/ml+μg/ml) A+B+C combination: A:B:D=12.5:2:4 (μg/ml+μg/ml+μg/ml) A+B+D combination: A:C:D=12.5:45:4 (μg/ml+μg/ml+μg/ml) A+C+D combination: B:C:D=2:45:4 (μg/ml+μg/ml+μg/ml) B+C+D combination:
# For the etoposide (A), vincristine (B) and 5-fluorouracil (C), dose-effect relationship data of single drugs and dose-effect relationship data in the combined use A:B:C=12.5:2:45 (μg/ml+μg/ml+μg/ml), see a table 9 and a table 10.
# Step 2, the dose is converted sequentially, and each dose-effect relationship data formed into an expected additive efficacy curve band under a combined condition is calculated.
# The equivalent dose conversion is performed on combinations of two drugs of A+B, A+C and B+C sequentially first and then the equivalent dose conversion is performed on (A+B)+C, (A+C)+B and (B+C)+A. An expression for an expected additive effect of the three drugs in the combined use is as follows.
# Y(A+B+C)=[Y(A+B)C, Y(A+C)+B, Y(B+c)+A] Hi^Lo↓, wherein Hi^Lo↓ Indicates function values of units in a number set and should be arranged from low to high. The Y(A+B+C)=[Y(A+B)+C, Y(A+C)+B, Y(B+c)+A]
# [1] = A:B:C=12.5:2:45 fixed proportion
compound,measurement,setting,value
"O=c1[nH]cc(F)c(=O)[nH]1 [5-fluorouracil (C), 5-fluorouracil]","dose range of the additive effect, 5-fluorouracil (C)",[1],6.5815 to 19.7579 µg/mL
same,Efficacy of C,C 0.00017166 μg/ml,−2.8810%
same,Efficacy of C,C 0.00068665 μg/ml,−2.7475%
same,Efficacy of C,C 0.00274658 μg/ml,−2.3331%
same,Efficacy of C,C 0.01098633 μg/ml,−1.0631%
same,Efficacy of C,C 0.04394531 μg/ml,2.6806%
same,Efficacy of C,C 0.17578125 μg/ml,12.5608%
same,Efficacy of C,C 0.703125 μg/ml,32.4840%
same,Efficacy of C,C 2.8125 μg/ml,57.2443%
same,Efficacy of C,C 11.25 μg/ml,74.5929%
same,Efficacy of C,C 45 μg/ml,82.4752%
same,inhibition at 0.000686646 µg/mL,"Homo sapiens, NCI-H460, 5-fluorouracil (C) 0.000686646 μg/ml single use, read-out: Inhibition rate",-0.33%
same,inhibition at 0.00274658 µg/mL,"Homo sapiens, NCI-H460, 5-fluorouracil (C) 0.002746582 μg/ml single use, read-out: Inhibition rate",6.67%
same,inhibition at 0.0109863 µg/mL,"Homo sapiens, NCI-H460, 5-fluorouracil (C) 0.010986328 μg/ml single use, read-out: Inhibition rate",-3.78%
same,inhibition at 0.0439453 µg/mL,"Homo sapiens, NCI-H460, 5-fluorouracil (C) 0.043945313 μg/ml single use, read-out: Inhibition rate",-6.89%
same,inhibition at 0.175781 µg/mL,"Homo sapiens, NCI-H460, 5-fluorouracil (C) 0.17578125 μg/ml single use, read-out: Inhibition rate",7.91%
same,inhibition at 0.703125 µg/mL,"Homo sapiens, NCI-H460, 5-fluorouracil (C) 0.703125 μg/ml single use, read-out: Inhibition rate",40%
same,inhibition at 2.8125 µg/mL,"Homo sapiens, NCI-H460, 5-fluorouracil (C) 2.8125 μg/ml single use, read-out: Inhibition rate",60.8%
same,inhibition at 11.25 µg/mL,"Homo sapiens, NCI-H460, 5-fluorouracil (C) 11.25 μg/ml single use, read-out: Inhibition rate",61.4%
same,inhibition at 45 µg/mL,"Homo sapiens, NCI-H460, 5-fluorouracil (C) 45 μg/ml single use, read-out: Inhibition rate",84.5%
same,inhibition at 180 µg/mL,"Homo sapiens, NCI-H460, 5-fluorouracil (C) 180 μg/ml single use, read-out: Inhibition rate",91%
"COc1cc([C@@H]2c3cc4c(cc3[C@@H](O[C@@H]3O[C@@H]5CO[C@@H](C)O[C@H]5[C@H](O)[C@H]3O)[C@H]3COC(=O)[C@H]23)OCO4)cc(OC)c1O [Etoposide (A), etoposide]",Efficacy of A,A 0.00004768 μg/ml,−1.3189%
same,Efficacy of A,A 0.00019073 μg/ml,0.5342%
same,Efficacy of A,A 0.00076294 μg/ml,3.2432%
same,Efficacy of A,A 0.00305176 μg/ml,7.1153%
same,Efficacy of A,A 0.01220703 μg/ml,12.4756%
same,Efficacy of A,A 0.048828125 μg/ml,19.5765%
same,Efficacy of A,A 0.1953125 μg/ml,28.4535%
same,Efficacy of A,A 0.78125 μg/ml,38.7811%
same,Efficacy of A,A 3.125 μg/ml,49.8373%
same,Efficacy of A,A 12.5 μg/ml,60.6678%
same,"dose range of the additive effect, etoposide (A)",[1],1.8282 to 5.4883 µg/mL
same,inhibition at 0.000190735 µg/mL,"Homo sapiens, NCI-H460, Etoposide (A) 0.000190735 μg/ml single use, read-out: Inhibition rate",1.38%
same,inhibition at 0.000762939 µg/mL,"Homo sapiens, NCI-H460, Etoposide (A) 0.000762939 μg/ml single use, read-out: Inhibition rate",3.73%
same,inhibition at 0.00305176 µg/mL,"Homo sapiens, NCI-H460, Etoposide (A) 0.003051758 μg/ml single use, read-out: Inhibition rate",-0.19%
same,inhibition at 0.012207 µg/mL,"Homo sapiens, NCI-H460, Etoposide (A) 0.012207031 μg/ml single use, read-out: Inhibition rate",16.7%
same,inhibition at 0.0488281 µg/mL,"Homo sapiens, NCI-H460, Etoposide (A) 0.048828125 μg/ml single use, read-out: Inhibition rate",17.2%
same,inhibition at 0.195312 µg/mL,"Homo sapiens, NCI-H460, Etoposide (A) 0.1953125 μg/ml single use, read-out: Inhibition rate",30.6%
same,inhibition at 0.78125 µg/mL,"Homo sapiens, NCI-H460, Etoposide (A) 0.78125 μg/ml single use, read-out: Inhibition rate",41.5%
same,inhibition at 3.125 µg/mL,"Homo sapiens, NCI-H460, Etoposide (A) 3.125 μg/ml single use, read-out: Inhibition rate",49.6%
same,inhibition at 12.5 µg/mL,"Homo sapiens, NCI-H460, Etoposide (A) 12.5 μg/ml single use, read-out: Inhibition rate",55%
same,inhibition at 50 µg/mL,"Homo sapiens, NCI-H460, Etoposide (A) 50 μg/ml single use, read-out: Inhibition rate",74.4%
"CC[C@]1(O)C[C@H]2CN(CCc3c([nH]c4ccccc34)[C@@](C(=O)OC)(c3cc4c(cc3OC)N(C=O)[C@H]3[C@@](O)(C(=O)OC)[C@H](OC(C)=O)[C@]5(CC)C=CCN6CC[C@]43[C@@H]65)C2)C1 [Vincristine (B), vincristine]","dose range of the additive effect, vincristine (B)",[1],0.2925 to 0.8781 µg/mL
same,Efficacy of B,B 0.00000763 μg/ml,4.9016%
same,Efficacy of B,B 0.00003052 μg/ml,4.9048%
same,Efficacy of B,B 0.00012207 μg/ml,4.9268%
same,Efficacy of B,B 0.00048828 μg/ml,5.0764%
same,Efficacy of B,B 0.00195313 μg/ml,6.0768%
same,Efficacy of B,B 0.0078125 μg/ml,12.0757%
same,Efficacy of B,B 0.03125 μg/ml,33.3731%
same,Efficacy of B,B 0.125 μg/ml,55.3101%
same,Efficacy of B,B 0.5 μg/ml,61.7291%
same,Efficacy of B,B 2 μg/ml,62.8101%
same,inhibition at 30.52 pg/mL,"Homo sapiens, NCI-H460, Vincristine (B) 0.000030518 μg/ml single use, read-out: Inhibition rate",2.75%
same,inhibition at 0.00012207 µg/mL,"Homo sapiens, NCI-H460, Vincristine (B) 0.00012207 μg/ml single use, read-out: Inhibition rate",-0.11%
same,inhibition at 0.000488281 µg/mL,"Homo sapiens, NCI-H460, Vincristine (B) 0.000488281 μg/ml single use, read-out: Inhibition rate",13.2%
same,inhibition at 0.00195312 µg/mL,"Homo sapiens, NCI-H460, Vincristine (B) 0.001953125 μg/ml single use, read-out: Inhibition rate",8.91%
same,inhibition at 0.0078125 µg/mL,"Homo sapiens, NCI-H460, Vincristine (B) 0.0078125 μg/ml single use, read-out: Inhibition rate",6.25%
same,inhibition at 0.03125 µg/mL,"Homo sapiens, NCI-H460, Vincristine (B) 0.03125 μg/ml single use, read-out: Inhibition rate",37%
same,inhibition at 0.125 µg/mL,"Homo sapiens, NCI-H460, Vincristine (B) 0.125 μg/ml single use, read-out: Inhibition rate",53.2%
same,inhibition at 0.5 µg/mL,"Homo sapiens, NCI-H460, Vincristine (B) 0.5 μg/ml single use, read-out: Inhibition rate",55.9%
same,inhibition at 2 µg/mL,"Homo sapiens, NCI-H460, Vincristine (B) 2 μg/ml single use, read-out: Inhibition rate",65.8%
same,inhibition at 8 µg/mL,"Homo sapiens, NCI-H460, Vincristine (B) 8 μg/ml single use, read-out: Inhibition rate",66.3%
